Test results as given in patent publication US9096560B2, “5-heterocyclylalkyl-3-hydroxy-2-phenylcyclopent-2-enones as herbicides” (Syngenta Limited, priority 2008, dated 2015).

What was measured:
Type in all cases: in vivo
Lolium perenne (LOLPE) [1] = test: Example B post-emergence herbicidal test, LOLPE; conditions: Lolium perenne, 312 h, rate 250 g/ha, evaluated after 13 days, scale 0-100, read-out: Post-emergence activity LOLPE (100=total damage to plant; 0=no damage to plant)
Procedure: (§1) Seeds of a variety of test species were sown in standard soil in pots. After cultivation for one day (pre-emergence) or after 8 days cultivation (post-emergence) under controlled conditions in a glasshouse (at 24/16° C., day/night; 14 hours light; 65% humidity), the plants were sprayed with an aqueous spray solution derived from the formulation of the technical active ingredient in acetone/water (50:50) solution containing 0.5% Tween 20 (polyoxyethelyene sorbitan monolaurate, CAS RN 9005-64-5). The test plants were then grown in a glasshouse under controlled conditions in a glasshouse (at 24/16° C., day/night; 14 hours light; 65% humidity) and watered twice daily. After 13 days for pre and post-emergence, the test was evaluated (100=total damage to plant; 0=no damage to plant). Lolium perenne (LOLPE), Alopecurus myosuroides (ALOMY), Echinochloa crus-galli (ECHCG), Avena fatua (AVEFA) Post-Emergence Activity

Avena fatua (AVEFA) [2] = test: Example B post-emergence herbicidal test, AVEFA; conditions: Avena fatua, 312 h, rate 250 g/ha, evaluated after 13 days, scale 0-100, read-out: Post-emergence activity AVEFA (100=total damage to plant; 0=no damage to plant)
Procedure: as §1

[3] = system: Alopecurus myosuroides (ALOMY); test: Example B post-emergence herbicidal test, ALOMY; conditions: Alopecurus myosuroides, 312 h, rate 250 g/ha, evaluated after 13 days, scale 0-100, read-out: Post-emergence activity ALOMY (100=total damage to plant; 0=no damage to plant)
Procedure: as §1

[4] = system: Echinochloa crus-galli (ECHCG); test: Example B post-emergence herbicidal test, ECHCG; conditions: Echinochloa crus-galli, 312 h, rate 250 g/ha, evaluated after 13 days, scale 0-100, read-out: Post-emergence activity ECHCG (100=total damage to plant; 0=no damage to plant)
Procedure: as §1

Avena fatua (AVEFA) [5] = test: Example B pre-emergence herbicidal test, AVEFA; conditions: Avena fatua, 312 h, rate 250 g/ha, evaluated after 13 days, 100=total damage to plant, 0=no damage to plant
Procedure: as §1, with “Pre-Emergence” for “Post-Emergence”

[6] = system: Alopecurus myosuroides (ALOMY); test: Example B pre-emergence herbicidal test, ALOMY; conditions: Alopecurus myosuroides, 312 h, rate 250 g/ha, evaluated after 13 days, 100=total damage to plant, 0=no damage to plant
Procedure: as §1, with “Pre-Emergence” for “Post-Emergence”

Lolium perenne (LOLPE) [7] = test: Example B pre-emergence herbicidal test, LOLPE; conditions: Lolium perenne, 312 h, rate 250 g/ha, evaluated after 13 days, 100=total damage to plant, 0=no damage to plant
Procedure: as §1, with “Pre-Emergence” for “Post-Emergence”

[8] = system: Echinochloa crus-galli (ECHCG); test: Example B pre-emergence herbicidal test, ECHCG; conditions: Echinochloa crus-galli, 312 h, rate 250 g/ha, evaluated after 13 days, 100=total damage to plant, 0=no damage to plant
Procedure: as §1, with “Pre-Emergence” for “Post-Emergence”

Row | Compound | pest or weed control at 250 g/ha (Lolium perenne (LOLPE) [1]) [%] | pest or weed control at 250 g/ha (Avena fatua (AVEFA) [2]) [%] | pest or weed control at 250 g/ha [3] [%] | pest or weed control at 250 g/ha [4] [%] | pest or weed control at 250 g/ha (Avena fatua (AVEFA) [5]) [%] | pest or weed control at 250 g/ha [6] [%] | pest or weed control at 250 g/ha (Lolium perenne (LOLPE) [7]) [%] | pest or weed control at 250 g/ha [8] [%]
1 | Cc1cc(C)c(C2C(=O)CC(CC3C[C@@H]4O[C@H]3[C@@H]3C(=O)NC(=O)[C@@H]34)C2=O)c(C)c1 (relative stereo) [Compound T127] | 20 | 10 | 20 | 20 |  |  |  | 
2 | COC1=C(c2c(C)cc(C)cc2C)C(=O)C(CC2CCOCC2)C1 (stereo not drawn) [Compound P4] | 30 | 40 | 60 | 20 |  |  |  | 
3 | Cc1cc(C)c(C2=C(OC(=O)C(C)(C)C)C/C(=C\C3CCSCC3)C2=O)c(C)c1 [Compound P9] | 40 | 10 | 30 | 50 | 0 | 30 | 40 | 20
4 | Cc1cc(C)c(C2=C(OC(=O)C3CC3)CC(CC3CCOC3)C2=O)c(C)c1 (stereo not drawn) [Compound P14] | 100 | 90 | 90 | 90 | 80 | 100 | 100 | 100
5 | Cc1cc(C)c(C2=C(OC(=O)C3CCCCC3)CC(CC3CCOC3)C2=O)c(C)c1 (stereo not drawn) [Compound P15] | 100 | 90 | 100 | 100 | 90 | 100 | 100 | 100
6 | COc1ccc(C(=O)OC2=C(c3c(C)cc(C)cc3C)C(=O)C(CC3CCOC3)C2)cc1 (stereo not drawn) [Compound P18] | 100 | 90 | 90 | 90 | 80 | 100 | 100 | 90
7 | Cc1cc(C)c(C2=C(OC(=O)OCC(C)C)CC(CC3CCOC3)C2=O)c(C)c1 (stereo not drawn) [Compound P23] | 100 | 90 | 90 | 90 | 80 | 100 | 100 | 100
8 | Cc1cc(C)c(C2=C(OC(=O)OCC(C)(C)C)CC(CC3CCOC3)C2=O)c(C)c1 (stereo not drawn) [Compound P24] | 100 | 90 | 90 | 90 | 90 | 100 | 100 | 90
9 | C=CCOC(=O)OC1=C(c2c(C)cc(C)cc2C)C(=O)C(CC2CCOC2)C1 (stereo not drawn) [Compound P25] | 100 | 90 | 90 | 100 | 80 | 100 | 90 | 90
10 | Cc1cc(C)c(C2=C(OC(=O)Oc3ccccc3)CC(CC3CCOC3)C2=O)c(C)c1 (stereo not drawn) [Compound P26] | 100 | 90 | 100 | 100 | 80 | 100 | 100 | 90
11 | CCS(=O)(=O)OC1=C(c2c(C)cc(C)cc2C)C(=O)C(CC2CCOC2)C1 (stereo not drawn) [Compound P27] | 100 | 80 | 80 | 90 | 80 | 100 | 100 | 80
12 | Cc1cc(C)c(C2=C(OS(=O)(=O)C3CC3)CC(CC3CCOC3)C2=O)c(C)c1 (stereo not drawn) [Compound P28] | 100 | 70 | 70 | 60 | 30 | 70 | 100 | 20
13 | Cc1cc(C)c(C2=C(OC(=O)N3CCCCC3)CC(CC3CCOC3)C2=O)c(C)c1 (stereo not drawn) [Compound P29] | 100 | 70 | 80 | 30 | 20 | 50 | 90 | 0
14 | CCSC(=O)OC1=C(c2c(C)cc(C)cc2C)C(=O)C(CC2CCOC2)C1 (stereo not drawn) [Compound P30] | 100 | 100 | 100 | 90 | 90 | 100 | 100 | 80
15 | Cc1cc(C)c(C2=C(OC(=O)c3ccco3)CC(CC3CCN(C(=O)c4ccco4)C3)C2=O)c(C)c1 (stereo not drawn) [Compound P62] | 80 | 70 | 70 | 70 |  |  |  | 
16 | COC1=C(c2c(C)cc(C)cc2C)C(=O)C/C1=C\C1CCOCC1 [Compound P69] | 40 | 20 | 0 | 80 |  |  |  | 
17 | Cc1cc(C)c(C2C(=O)CC(C(O)C3CCSCC3)C2=O)c(C)c1 (stereo not drawn) [Compound T6] | 10 | 0 | 20 | 10 |  |  |  | 
18 | Cc1cc(C)c(C2C(=O)CC(CC3CCNCC3)C2=O)c(C)c1 (stereo not drawn) [Compound T53] |  |  |  |  | 0 | 30 | 40 | 0
19 | Cc1ccc(S(=O)(=O)N2CCC(CC3CC(=O)C(c4c(C)cc(C)cc4C)C3=O)CC2)cc1 (stereo not drawn) [Compound T109] |  |  |  |  | 0 | 0 | 0 | 0
20 | Cc1cc(C)c(C2C(=O)CC(CC3CCN(C(=O)/C=C/c4ccccc4)CC3)C2=O)c(C)c1 (stereo not drawn) [Compound T116] | 90 | 90 | 60 | 50 |  |  |  | 
21 | Cc1cc(-c2ccc(C(F)(F)F)cc2)cc(C)c1C1C(=O)C/C(=C\C2CCOCC2)C1=O (stereo not drawn) [Compound T133] | 0 | 30 | 20 | 90 |  |  |  | 
22 | Cc1cc(-c2ccc(C(F)(F)F)cc2)cc(C)c1C1C(=O)CC(CC2CCOCC2)C1=O (stereo not drawn) [Compound T136] | 30 | 70 | 50 | 60 |  |  |  | 
23 | CCC1(CC2CCOC2)CC(=O)C(c2c(C)cc(C)cc2C)C1=O (stereo not drawn) [Compound T152] | 30 | 10 | 20 | 10 |  |  |  | 
24 | COCC1(CC2CCOC2)CC(=O)C(c2c(C)cc(C)cc2C)C1=O (stereo not drawn) [Compound T153] | 20 | 20 | 10 | 10 |  |  |  | 
